Target: human ACC2 (Homo sapiens (Human), UniProt O00763)
Experiment: ACC2 assay (spectrophotometric 384 well assay, NADH-linked kinetic method)
Type: biochemical
Details: hACC2 construct lacking 128 N-terminal amino acids; coupled lactate dehydrogenase/pyruvate kinase reaction, 340 nm, 25° C.
Description: Spectrophotometric 384 Well Assay
Malonyl CoA formation by acetyl CoA carboxylases is stoichometrically linked to the consumption of ATP. ACC2 activity is measured in a NADH-linked kinetic method measuring ADP generated during the ACC reaction using a coupled lactate dehydrogenase/pyruvate kinase reaction.
The protein is then expressed in insect cells using a baculoviral expression system. Protein purification is performed by anion exchange.
All compounds are dissolved in dimethyl sulfoxide (DMSO) to a concentration of 10 mM.
The enzymatic reaction is then started by addition of a mixture of NADH, acetyl Coenzyme A (both 200 μM f.c.) and ATP (500 uM f.c.). The decrease of the optical density (slope S) is then determined at 25° C. at a wavelength of 340 nm over 15 minutes in a spectrophotometric reader.
Each assay microtiter plate contains wells with vehicle instead of compound as controls for the non-inhibited enzyme (100% CTL; ‘HIGH’) and wells without acetyl-CoA as controls for non-specific NADH degradation (0% CTL; ‘LOW’).

Sequence of human ACC2 (O00763 129-2458): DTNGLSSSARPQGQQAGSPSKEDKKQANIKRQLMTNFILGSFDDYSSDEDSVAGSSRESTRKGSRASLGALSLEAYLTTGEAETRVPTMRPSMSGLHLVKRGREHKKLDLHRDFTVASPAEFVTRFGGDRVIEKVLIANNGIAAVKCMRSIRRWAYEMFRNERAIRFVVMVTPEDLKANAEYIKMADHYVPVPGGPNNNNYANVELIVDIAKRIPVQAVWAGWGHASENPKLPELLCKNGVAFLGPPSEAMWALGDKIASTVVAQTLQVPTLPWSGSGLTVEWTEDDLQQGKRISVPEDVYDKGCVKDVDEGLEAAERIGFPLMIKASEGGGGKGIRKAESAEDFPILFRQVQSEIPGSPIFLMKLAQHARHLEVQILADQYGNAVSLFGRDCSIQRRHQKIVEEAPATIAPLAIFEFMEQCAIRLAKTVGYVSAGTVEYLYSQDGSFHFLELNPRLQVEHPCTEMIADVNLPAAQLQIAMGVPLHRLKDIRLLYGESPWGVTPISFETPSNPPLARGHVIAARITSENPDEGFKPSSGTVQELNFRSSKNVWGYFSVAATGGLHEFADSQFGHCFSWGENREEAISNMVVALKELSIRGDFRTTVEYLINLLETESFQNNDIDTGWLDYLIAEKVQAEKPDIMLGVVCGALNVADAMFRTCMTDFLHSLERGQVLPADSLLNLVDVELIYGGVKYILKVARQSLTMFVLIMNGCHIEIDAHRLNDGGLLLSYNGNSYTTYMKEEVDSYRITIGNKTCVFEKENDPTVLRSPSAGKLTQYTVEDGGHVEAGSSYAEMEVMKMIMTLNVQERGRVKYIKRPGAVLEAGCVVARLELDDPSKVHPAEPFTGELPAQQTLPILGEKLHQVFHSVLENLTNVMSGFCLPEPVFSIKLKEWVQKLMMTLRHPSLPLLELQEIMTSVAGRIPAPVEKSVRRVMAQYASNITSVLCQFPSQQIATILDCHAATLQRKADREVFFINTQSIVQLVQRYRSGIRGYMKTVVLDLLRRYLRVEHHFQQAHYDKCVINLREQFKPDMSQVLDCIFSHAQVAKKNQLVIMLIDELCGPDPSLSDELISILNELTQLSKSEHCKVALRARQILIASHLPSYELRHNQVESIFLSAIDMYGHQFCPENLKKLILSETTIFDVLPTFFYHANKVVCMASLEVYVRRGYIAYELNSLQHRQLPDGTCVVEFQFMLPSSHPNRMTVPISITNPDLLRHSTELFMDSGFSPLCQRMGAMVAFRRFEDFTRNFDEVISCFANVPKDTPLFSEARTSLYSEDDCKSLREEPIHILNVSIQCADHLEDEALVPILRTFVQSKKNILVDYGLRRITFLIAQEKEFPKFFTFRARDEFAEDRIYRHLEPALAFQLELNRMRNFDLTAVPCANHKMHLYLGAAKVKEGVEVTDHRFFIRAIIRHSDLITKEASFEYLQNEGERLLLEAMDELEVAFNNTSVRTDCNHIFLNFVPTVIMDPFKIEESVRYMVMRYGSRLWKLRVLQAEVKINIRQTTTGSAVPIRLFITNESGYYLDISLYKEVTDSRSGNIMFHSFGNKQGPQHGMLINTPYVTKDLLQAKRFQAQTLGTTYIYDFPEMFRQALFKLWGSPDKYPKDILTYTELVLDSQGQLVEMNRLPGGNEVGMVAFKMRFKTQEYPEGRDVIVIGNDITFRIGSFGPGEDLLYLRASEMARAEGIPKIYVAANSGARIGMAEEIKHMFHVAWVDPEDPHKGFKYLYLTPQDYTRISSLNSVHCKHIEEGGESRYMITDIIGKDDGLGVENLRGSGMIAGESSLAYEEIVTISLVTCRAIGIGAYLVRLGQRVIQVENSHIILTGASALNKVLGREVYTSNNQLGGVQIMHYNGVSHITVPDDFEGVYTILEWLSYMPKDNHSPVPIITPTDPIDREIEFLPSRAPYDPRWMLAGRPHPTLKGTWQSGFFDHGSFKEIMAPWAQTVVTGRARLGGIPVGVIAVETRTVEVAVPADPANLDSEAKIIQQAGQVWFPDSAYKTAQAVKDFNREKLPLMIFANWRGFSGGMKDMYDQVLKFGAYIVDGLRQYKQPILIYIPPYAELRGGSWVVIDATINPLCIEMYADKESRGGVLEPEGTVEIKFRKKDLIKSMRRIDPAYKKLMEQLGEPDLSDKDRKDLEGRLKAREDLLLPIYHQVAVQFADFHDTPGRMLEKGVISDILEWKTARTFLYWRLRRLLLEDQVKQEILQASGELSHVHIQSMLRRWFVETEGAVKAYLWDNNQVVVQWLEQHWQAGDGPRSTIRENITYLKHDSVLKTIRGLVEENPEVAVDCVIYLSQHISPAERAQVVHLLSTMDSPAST

Row | IC50 [nM] | Structure (SMILES)
1 | 155 | C[C@H](NC(=O)N(C)C)c1ccc(O[C@@H]2CCN(c3ncnc(OCC(C)(F)F)c3F)C2)cc1 [Example 3.19]
2 | 576 | CCNC(=O)N[C@@H](C)c1ccc(O[C@@H]2CCN(c3nc(N4CCOCC4)ncc3F)C2)cc1 [Example 3.20]
3 | 65 | COC(=O)N[C@@H](C)c1ccc(O[C@@H]2CCN(c3ccnc(N(C)CC(F)F)n3)C2)cc1 [Example 4.1, Methyl (S)-1-(4-((R)-1-(2-((2,2-difluoroethyl)(methyl)amino)pyrimidin-4-yl)pyrrolidin-3-yloxy)phenyl)ethylcarbamate]
4 | 244 | COC(=O)N[C@@H](C)c1ccc(OC2CCN(c3ccnc(N4CCOCC4)n3)C2)cc1 (some centres unmarked) [Example 4.2]
5 | 494 | CCOC(=O)N[C@@H](C)c1ccc(OC2CCN(c3ccnc(N4CCOCC4)n3)C2)cc1 (some centres unmarked) [Example 4.3]
6 | 75 | CCN(C)c1nccc(N2CCC(Oc3ccc([C@H](C)NC(=O)OC)cc3)C2)n1 (some centres unmarked) [Example 4.4]
7 | 85 | COC(=O)N[C@@H](C)c1ccc(OC2CCN(c3ncnc(OCC4CC4)c3F)C2)cc1 (some centres unmarked) [Example 4.5]
8 | 222 | COC(=O)N[C@@H](C)c1ccc(OC2CCN(c3ncnc(OCC(C)(C)O)c3F)C2)cc1 (some centres unmarked) [Example 4.6]
9 | 59 | CCN(C)c1nccc(N2CC[C@@H](Oc3ccc([C@H](C)NC(=O)C(F)F)cc3)C2)n1 [Example 5.1, N—((S)-1-(4-((R)-1-(2-(ethyl(methyl)amino)pyrimidin-4-yl)pyrrolidin-3-yloxy)phenyl)ethyl)-2,2-difluoroacetamide]
10 | 49 | C[C@H](NC(=O)C(F)F)c1ccc(OC2CCN(c3ccnc(N(C)CC(F)F)n3)C2)cc1 (some centres unmarked) [Example 5.2]
11 | 65 | C[C@H](NC(=O)C(F)F)c1ccc(OC2CCN(c3ncnc(OCC4CC4)c3F)C2)cc1 (some centres unmarked) [Example 5.3]
12 | 110 | CC(=O)N[C@@H](C)c1ccc(O[C@@H]2CCN(c3ncc(OCC4CCC4)cn3)C2)cc1 [Example 6.1, N—((S)-1-(4-((R)-1-(5-(cyclobutylmethoxy)pyrimidin-2-yl)pyrrolidin-3-yloxy)phenyl)ethyl)acetamide]
13 | 1910 | CC(=O)N[C@@H](C)c1ccc(O[C@@H]2CCN(c3ncc(C4CC4)cn3)C2)cc1 [Example 6.4]
14 | 830 | CC(=O)N[C@@H](C)c1ccc(O[C@@H]2CCN(c3ncc(OC(C)C)cn3)C2)cc1 [Example 6.6]
15 | 1080 | CC(=O)N[C@@H](C)c1ccc(O[C@@H]2CCN(c3ncc(OCC4CC4)cn3)C2)cc1 [Example 6.7]
16 | 163 | CC(=O)N[C@@H](C)c1ccc(O[C@@H]2CCN(c3ncc(OCC4CC4(F)F)cn3)C2)cc1 (some centres unmarked) [Example 6.8]
17 | 654 | CC(=O)N[C@@H](C)c1ccc(O[C@@H]2CCN(c3ccnc(C(C)C)n3)C2)cc1 [Example 6.9]
18 | 929 | CC(=O)N[C@@H](C)c1ccc(O[C@@H]2CCN(c3nccc(N4CCCC4)n3)C2)cc1 [Example 6.10]
19 | 244 | CCN(C)c1ccnc(N2CC[C@@H](Oc3ccc([C@H](C)NC(C)=O)cc3)C2)n1 [Example 6.11]
20 | 828 | CCN(C)c1nc(N2CC[C@@H](Oc3ccc([C@H](C)NC(C)=O)cc3)C2)ncc1F [Example 6.12]
21 | 510 | CCN(CC)c1nc(N2CC[C@@H](Oc3ccc([C@H](C)NC(C)=O)cc3)C2)ncc1F [Example 6.13]
22 | 290 | C[C@H](NC(=O)c1cncs1)c1ccc(O[C@@H]2CCN(c3nccc(N4CCOCC4)n3)C2)cc1 [Example 6.14]

Row | IC50 [nM] | Structure (SMILES)
23 | 220 | C[C@H](NC(=O)c1cncs1)c1ccc(O[C@@H]2CCN(c3ncc(OCC4CC4(F)F)cn3)C2)cc1 (some centres unmarked) [Example 6.15]
24 | 153 | C[C@H](NC(=O)c1cncs1)c1ccc(O[C@@H]2CCN(c3ccnc(C(F)(F)F)n3)C2)cc1 [Example 6.16]
25 | 2360 | CC(=O)N[C@@H](C)c1ccc(O[C@@H]2CCN(c3ncc(C4CCC4)cn3)C2)cc1 [Example 6.17]
26 | 935 | CC(=O)N[C@@H](C)c1ccc(O[C@@H]2CCN(c3ncc(C4CCCC4)cn3)C2)cc1 [Example 6.18]
27 | 449 | CC(=O)N[C@@H](C)c1ccc(O[C@@H]2CCN(c3ncc(OCCC4CC4)cn3)C2)cc1 [Example 6.19]
28 | 974 | CC(=O)N[C@@H](C)c1ccc(O[C@@H]2CCN(c3ncc(OCC(C)C)cn3)C2)cc1 [Example 6.20]
29 | 303 | CC(=O)N[C@@H](C)c1ccc(O[C@@H]2CCN(c3ccnc(C(F)(F)F)n3)C2)cc1 [Example 6.21]
30 | 1350 | CCCN(C)c1ccnc(N2CC[C@@H](Oc3ccc([C@H](C)NC(C)=O)cc3)C2)n1 [Example 6.22]
31 | 1730 | CC(=O)N[C@@H](C)c1ccc(O[C@@H]2CCN(c3nccc(C(F)(F)F)n3)C2)cc1 [Example 6.23]
32 | 819 | CC(=O)N[C@@H](C)c1ccc(O[C@@H]2CCN(c3ncc(C(C)(C)C)cn3)C2)cc1 [Example 6.24]
33 | 714 | CCCc1cnc(N2CC[C@@H](Oc3ccc([C@H](C)NC(C)=O)cc3)C2)nc1 [Example 6.25]
34 | 120 | CC(=O)N[C@@H](C)c1ccc(O[C@@H]2CCN(c3ncc(OC[C@H]4CC4(F)F)cn3)C2)cc1 [Example 6.26]
35 | 35 | CC(=O)N[C@@H](C)c1ccc(O[C@@H]2CCN(c3ncnc(OCC4CC4)c3F)C2)cc1 [Example 7.1, N—((S)-1-(4-((R)-1-(6-(cyclopropylmethoxy)-5-fluoropyrimidin-4-yl)pyrrolidin-3-yloxy)phenyl)ethyl)acetamide]
36 | 649 | CCCOc1cc(N2CC[C@@H](Oc3ccc([C@H](C)NC(C)=O)cc3)C2)ncn1 [Example 7.2]
37 | 375 | CC(=O)N[C@@H](C)c1ccc(O[C@@H]2CCN(c3cc(OCC4CC4)ncn3)C2)cc1 [Example 7.3]
38 | 373 | CC(=O)N[C@@H](C)c1ccc(O[C@@H]2CCN(c3cc(OC4CCC4)ncn3)C2)cc1 [Example 7.4]
39 | 842 | CC(=O)N[C@@H](C)c1ccc(O[C@@H]2CCN(c3cc(OCC4CC4(F)F)ncn3)C2)cc1 (some centres unmarked) [Example 7.5]
40 | 1100 | CC(=O)N[C@@H](C)c1ccc(O[C@@H]2CCN(c3ccnc(OCC4CC4)n3)C2)cc1 [Example 7.6]
41 | 884 | CC(=O)N[C@@H](C)c1ccc(O[C@@H]2CCN(c3ccnc(OC4CCC4)n3)C2)cc1 [Example 7.7]
42 | 2090 | CCCOc1ccnc(N2CC[C@@H](Oc3ccc([C@H](C)NC(C)=O)cc3)C2)n1 [Example 7.8]
43 | 879 | CC(=O)N[C@@H](C)c1ccc(O[C@@H]2CCN(c3cc(OCC(F)(F)F)ncn3)C2)cc1 [Example 7.9]
44 | 368 | CC(=O)N[C@@H](C)c1ccc(O[C@@H]2CCN(c3nc(OC4CCC4)ncc3F)C2)cc1 [Example 7.11]

Row | IC50 [nM] | Structure (SMILES)
45 | 585 | CCOc1ncc(F)c(N2CC[C@@H](Oc3ccc([C@H](C)NC(C)=O)cc3)C2)n1 [Example 7.12]
46 | 780 | CC(=O)N[C@@H](C)c1ccc(O[C@@H]2CCN(c3nc(OCC(C)C)ncc3F)C2)cc1 [Example 7.14]
47 | 828 | CC(=O)N[C@@H](C)c1ccc(O[C@@H]2CCN(c3nc(OCC(F)F)ncc3F)C2)cc1 [Example 7.15]
48 | 960 | CC(=O)N[C@@H](C)c1ccc(O[C@@H]2CCN(c3ccnc(OCC(C)C)n3)C2)cc1 [Example 7.17]
49 | 565 | CC(=O)N[C@@H](C)c1ccc(O[C@@H]2CCN(c3nc(OCC4(C)CC4)ncc3F)C2)cc1 [Example 7.18]
50 | 65 | CCCOc1ncnc(N2CC[C@@H](Oc3ccc([C@H](C)NC(C)=O)cc3)C2)c1F [Example 7.19]
51 | 35 | CC(=O)N[C@@H](C)c1ccc(O[C@@H]2CCN(c3ncnc(OCC4CC4)c3Cl)C2)cc1 [Example 7.20]
52 | 45 | CCCOc1ncnc(N2CC[C@@H](Oc3ccc([C@H](C)NC(C)=O)cc3)C2)c1Cl [Example 7.21]
53 | 140 | CCOc1ncnc(N2CC[C@@H](Oc3ccc([C@H](C)NC(C)=O)cc3)C2)c1Cl [Example 7.22]
54 | 120 | CCCOc1ncnc(N2CC[C@@H](Oc3ccc([C@H](C)NC(C)=O)cc3)C2)c1C [Example 7.23]
55 | 394 | CCOc1ncnc(N2CC[C@@H](Oc3ccc([C@H](C)NC(C)=O)cc3)C2)c1C [Example 7.24]
56 | 67 | CC(=O)N[C@@H](C)c1ccc(O[C@@H]2CCN(c3ncnc(OCC4CC4)c3C)C2)cc1 [Example 7.25]
57 | 148 | CCOc1ncnc(N2CC[C@@H](Oc3ccc([C@H](C)NC(C)=O)cc3)C2)c1F [Example 7.26]
58 | 35 | CC(=O)N[C@@H](C)c1ccc(O[C@@H]2CCN(c3ncnc(OC4CCC4)c3F)C2)cc1 [Example 7.27]
59 | 69 | CC(=O)N[C@@H](C)c1ccc(O[C@@H]2CCN(c3ncnc(OCC(C)C)c3F)C2)cc1 [Example 7.28]
60 | 175 | CC(=O)N[C@@H](C)c1ccc(O[C@@H]2CCN(c3ncnc(OCC4(C#N)CC4)c3F)C2)cc1 [Example 7.29]
61 | 153 | CC(=O)N[C@@H](C)c1ccc(O[C@@H]2CCN(c3ncnc(OCC(F)F)c3F)C2)cc1 [Example 7.30]
62 | 49 | CC(=O)N[C@@H](C)c1ccc(O[C@@H]2CCN(c3ncnc(OCCCF)c3F)C2)cc1 [Example 7.31]
63 | 145 | CC(=O)N[C@@H](C)c1ccc(O[C@@H]2CCN(c3ncnc(OCC(C)(C)O)c3F)C2)cc1 [Example 7.32]
64 | 86 | CC(=O)N[C@@H](C)c1ccc(O[C@@H]2CCN(c3ncnc(OCC(C)(F)F)c3F)C2)cc1 [Example 7.33]
65 | 63 | CC(=O)N[C@@H](C)c1ccc(O[C@@H]2CCN(c3ncnc(OCC4CC4(F)F)c3F)C2)cc1 (some centres unmarked) [Example 7.34]

From US8962641B2, “Pyrimidine-substituted pyrrolidine derivatives, pharmaceutical compositions and uses thereof” (Boehringer Ingelheim International GmbH, priority 2013, dated 2015)
